According to ChEMBL document CHEMBL1147562, “Synthesis of potent and highly selective nonguanidine azetidinone inhibitors of human tryptase” (Bioorg Med Chem Lett, 2004):

Tests used:
Coagulation factor X = Coagulation factor X (Homo sapiens, UniProt P00742); experiment: Inhibitory activity of compound against Coagulation factor X was determined
[1] = target: Tissue-type plasminogen activator (Homo sapiens, UniProt P00750); experiment: Inhibitory activity of compound against tissue type plasminogen activator was determined
Chain of Tissue-type plasminogen activator (P00750 whole entry): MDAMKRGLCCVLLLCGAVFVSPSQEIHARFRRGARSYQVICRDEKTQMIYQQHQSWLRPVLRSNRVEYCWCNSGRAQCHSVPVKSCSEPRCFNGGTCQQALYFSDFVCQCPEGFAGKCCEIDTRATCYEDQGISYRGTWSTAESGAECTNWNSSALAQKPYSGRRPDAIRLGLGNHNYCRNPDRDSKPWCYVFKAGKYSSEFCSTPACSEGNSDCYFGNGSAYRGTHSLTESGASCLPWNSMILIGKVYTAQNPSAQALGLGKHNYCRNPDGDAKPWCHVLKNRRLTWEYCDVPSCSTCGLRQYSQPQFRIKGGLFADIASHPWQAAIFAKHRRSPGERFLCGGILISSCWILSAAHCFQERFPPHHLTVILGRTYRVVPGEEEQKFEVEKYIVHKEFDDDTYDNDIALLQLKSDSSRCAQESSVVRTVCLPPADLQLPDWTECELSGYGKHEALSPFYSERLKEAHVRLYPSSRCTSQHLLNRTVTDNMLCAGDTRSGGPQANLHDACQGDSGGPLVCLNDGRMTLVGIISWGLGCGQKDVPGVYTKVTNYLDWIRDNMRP

Prothrombin = Prothrombin (Homo sapiens, UniProt P00734); experiment: Inhibitory activity of compound against Thrombin was determined
Plasminogen = Plasminogen (Rattus norvegicus, UniProt Q01177); experiment: Inhibitory activity of compound against Plasmin was determined
Chain of Plasminogen (Q01177 97-581 limits assumed): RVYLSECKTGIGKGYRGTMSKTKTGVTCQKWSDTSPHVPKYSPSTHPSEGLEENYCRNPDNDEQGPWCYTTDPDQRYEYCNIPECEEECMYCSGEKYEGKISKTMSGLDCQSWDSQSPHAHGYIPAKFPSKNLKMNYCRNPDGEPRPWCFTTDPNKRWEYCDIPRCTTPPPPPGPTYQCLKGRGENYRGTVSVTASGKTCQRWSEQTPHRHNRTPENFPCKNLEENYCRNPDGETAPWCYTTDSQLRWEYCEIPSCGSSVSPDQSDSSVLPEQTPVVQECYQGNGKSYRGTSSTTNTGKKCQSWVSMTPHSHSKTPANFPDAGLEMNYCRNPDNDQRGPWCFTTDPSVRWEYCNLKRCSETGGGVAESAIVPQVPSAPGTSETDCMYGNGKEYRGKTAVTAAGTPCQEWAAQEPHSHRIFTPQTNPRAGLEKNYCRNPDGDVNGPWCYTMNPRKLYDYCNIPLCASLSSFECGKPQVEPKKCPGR
Chain of Plasminogen (Q01177 582-812 limits assumed): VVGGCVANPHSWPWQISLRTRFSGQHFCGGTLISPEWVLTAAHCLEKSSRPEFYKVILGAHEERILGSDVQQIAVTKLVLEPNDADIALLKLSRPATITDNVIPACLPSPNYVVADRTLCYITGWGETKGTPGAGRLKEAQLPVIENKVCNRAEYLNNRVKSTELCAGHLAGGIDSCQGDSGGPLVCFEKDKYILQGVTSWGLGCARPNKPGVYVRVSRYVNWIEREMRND

Tryptase = Tryptase (Homo sapiens, UniProt Q9BZJ3+Q15661+Q9NRR2); experiment: Inhibitory activity of compound against human tryptase was determined; format: protein assay
Serine protease 1 = Serine protease 1 (Homo sapiens, UniProt P07477); experiment: Inhibitory activity of compound against Trypsin was determined
Chain of Serine protease 1 (P07477 whole entry): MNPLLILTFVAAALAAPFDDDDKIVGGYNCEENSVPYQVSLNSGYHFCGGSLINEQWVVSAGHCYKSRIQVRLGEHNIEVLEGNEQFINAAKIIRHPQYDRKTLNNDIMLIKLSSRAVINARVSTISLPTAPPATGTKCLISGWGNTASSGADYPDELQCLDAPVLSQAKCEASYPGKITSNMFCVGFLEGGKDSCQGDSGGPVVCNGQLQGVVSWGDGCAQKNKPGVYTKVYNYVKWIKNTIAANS

[2] = target: Urokinase-type plasminogen activator (Homo sapiens, UniProt P00749); experiment: Inhibitory activity of compound against Urokinase-type plasminogen activator was determined
[3] = Half-life of compound was determined at pH 7; format: ADME
[4] = Half-life of compound was determined at pH 9; format: ADME

Chain of Coagulation factor X (P00742 41-179 limits assumed): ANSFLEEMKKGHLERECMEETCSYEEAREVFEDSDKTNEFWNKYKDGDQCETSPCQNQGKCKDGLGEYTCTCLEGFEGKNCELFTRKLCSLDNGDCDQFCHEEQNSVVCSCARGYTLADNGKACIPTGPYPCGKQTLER
Chain of Coagulation factor X (P00742 235-488 limits assumed): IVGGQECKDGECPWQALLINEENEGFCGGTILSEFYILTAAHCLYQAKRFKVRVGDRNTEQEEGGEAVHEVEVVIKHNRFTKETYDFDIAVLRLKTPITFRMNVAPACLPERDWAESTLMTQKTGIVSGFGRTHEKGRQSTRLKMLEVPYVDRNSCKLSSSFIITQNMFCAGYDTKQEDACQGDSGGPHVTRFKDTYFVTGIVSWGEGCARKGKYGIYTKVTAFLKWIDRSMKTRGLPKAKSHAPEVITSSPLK

SMILES	IC50 (Tryptase) [nM]	other results
CC(C)C(OC(=O)N1CCN(C(=O)N2C(=O)[C@H](CC3CCNCC3)[C@H]2C(=O)O)CC1)C(C)C	29	IC50 (Coagulation factor X): > 33000 nM; IC50 [1]: > 33000 nM; IC50 (Prothrombin): > 33000 nM; IC50 (Plasminogen): 6220 nM; IC50 (Serine protease 1): 935 nM; IC50 [2]: 7000 nM
CC(C)C(OC(=O)N1CCN(C(=O)N2C(=O)[C@H](Cc3cccc(CN)c3)[C@H]2C(=O)O)CC1)C(C)C	19	
O=C(O)[C@@H]1[C@@H](CCC2CCCNC2)C(=O)N1C(=O)N1CCN(C(=O)CCCCCc2ccccc2)CC1 (stereo not given in full)	1.8	IC50 (Coagulation factor X): > 33000 nM; IC50 [1]: > 33000 nM; IC50 (Prothrombin): > 33000 nM; IC50 (Plasminogen): 309 nM; IC50 (Serine protease 1): 10000 nM; IC50 [2]: > 33000 nM
CC(C)C(OC(=O)N1CCN(C(=O)N2C(=O)[C@H](CCCCN=C(N)N)[C@H]2C(=O)O)CC1)C(C)C (single isomer, unassigned)	39	
NCCCC[C@H]1C(=O)N(C(=O)N2CCN(C(=O)CCCCCc3ccccc3)CC2)[C@@H]1C(=O)O	< 1.7	
CC(C)C(OC(=O)N1CCN(C(=O)N2C(=O)[C@H](CC3CCCNC3)[C@H]2C(=O)O)CC1)C(C)C (stereo not given in full)	17899	
O=C(O)[C@@H]1[C@@H](CC2CCNCC2)C(=O)N1C(=O)Nc1ccccc1	147	
N=C(N)N1CCC[C@H](C[C@H]2C(=O)N(C(=O)N3CCN(C(=O)CCCCCc4ccccc4)CC3)[C@@H]2C(=O)O)C1	< 1.7	
Nc1ccccn1 [2-AMINOPYRIDINE]		pKa (physchem): 7
N=C(N)N1CCC(C[C@H]2C(=O)N(C(=O)Nc3ccccc3)[C@@H]2C(=O)O)CC1	515	
O=C(O)[C@@H]1[C@@H](CC2CCNCC2)C(=O)N1C(=O)N1CCN(C(=O)CCCCCc2ccccc2)CC1	1	half-life [3]: > 48 h; half-life [4]: 35 h
CC(C)C(OC(=O)N1CCN(C(=O)N2C(=O)[C@H](Cc3ccnc(N)c3)[C@H]2C(=O)O)CC1)C(C)C	61	
N=C(N)N1CCC[C@@H](C[C@H]2C(=O)N(C(=O)N3CCN(C(=O)CCCCCc4ccccc4)CC3)[C@@H]2C(=O)O)C1	< 1.7	
CC(C)C(OC(=O)N1CCN(C(=O)N2C(=O)[C@H](CCC3CCNCC3)[C@H]2C(=O)O)CC1)C(C)C	1214	

Now from value to compound, other results behind:

IC50 (Tryptase) [nM]	SMILES	other results
1053	CC(C)C(OC(=O)N1CCN(C(=O)N2C(=O)[C@H](Cc3ccc(N)nc3)[C@H]2C(=O)O)CC1)C(C)C	
> 33000	CC(C)C(OC(=O)N1CCN(C(=O)N2C(=O)[C@H](CCCN)[C@H]2C(=O)O)CC1)C(C)C	
32	CC(C)C(OC(=O)N1CCN(C(=O)N2C(=O)[C@H](CCCCCCN)[C@H]2C(=O)O)CC1)C(C)C	
7	CC(C)C(OC(=O)N1CCN(C(=O)N2C(=O)[C@H](CCCCN)[C@H]2C(=O)O)CC1)C(C)C	
34	CC(C)C(OC(=O)N1CCN(C(=O)N2C(=O)[C@H](CCCCCN)[C@H]2C(=O)O)CC1)C(C)C	
2605	CC(C)C(OC(=O)N1CCN(C(=O)N2C(=O)[C@H](CC3CCNC3)[C@H]2C(=O)O)CC1)C(C)C (stereo not given in full)	
211	CC(C)C(OC(=O)N1CCN(C(=O)N2C(=O)[C@H](Cc3ccc(CN)cc3)[C@H]2C(=O)O)CC1)C(C)C	
